The results in this text go back to US9765087B2, “Benzimidazole derivatives” (ENANTA PHARMACEUTICALS, INC., priority 2009, dated 2017).

As usually defined, the EC50 is the concentration needed to bring the measured effect to its halfway point.

Like-named read-outs stand apart in the source and are kept apart here.

For experiment [1], the system named is HCV 1a genotype replicon. The experiment in a line: HCV replicon assay (qRT-PCR or luciferase), genotype 1a. The experiment is classed as cell-based. As to conditions: Hepatitis C virus. On the procedure:
HCV replicon cell lines (kindly provided by R. Bartenschlager) isolated from colonies as described by Lohman et. al. (Lohman et al. (1999) Science 285: 110-113, expressly incorporated by reference in its entirety) and used for all experiments. The HCV replicon has the nucleic acid sequence set forth in EMBL Accession No.: AJ242651, the coding sequence of which is from nucleotides 1801 to 8406.
These cell lines were maintained at 37° C., 5% CO2, 100% relative humidity in DMEM (Cat#11965-084, Invitrogen), with 10% fetal calf serum (“FCS”, Invitrogen), 1% non-essential amino acids (Invitrogen), 1% of Glutamax (Invitrogen), 1% of 100× penicillin/streptomycin (Cat#15140-122, Invitrogen) and Geneticin (Cat#10131-027, Invitrogen) at 0.75 mg/ml or 0.5 mg/ml for 11-7 and Huh-luc/neo-ET cells, respectively.
EC50 values of single agent compounds and combinations were determined by HCV RNA detection using quantitative RT-PCR, according to the manufacturer's instructions, with a TAQMAN® One-Step RT-PCR Master Mix Reagents Kit (Cat#AB 4309169, Applied Biosystems) on an ABI Model 7500 thermocycler. The TaqMan primers used for detecting and quantifying HCV RNA were obtained from Integrated DNA Technologies. HCV RNA was normalized to GAPDH RNA levels in drug-treated cells, which is detected and quantified using the Human GAPDH Endogenous Control Mix (Applied Biosystems, AB 4310884E). Total cellular RNA is purified from 96-well plates using the RNAqueous 96 kit (Ambion, Cat# AM1812). Chemical agent cytotoxicity is evaluated using an MTS assay according to the manufacturer's directions (Promega).
Since clinical drug resistance often develops in viral infections following single agent therapies, there is a need to assess the additive, antagonistic, or synergistic properties of combination therapies. We used the HCV replicon system to assess the potential use of the compound of the present invention or in combination therapies with Interferon alpha, cyclosporine analogs and inhibitors targeting other HCV proteins. The acute effects of a single or combinations of drugs are studied in the “Huh-luc/neo-ET” replicon with each chemical agent titrated in an X or Y direction in a 6 point two-fold dilution curve centered around the EC50 of each drug. Briefly, replicon cells are seeded at 7,000 cells per well in 90 ul DMEM (without phenol red, Invitrogen Cat.#31053-036) per well with 10% FCS, 1% non-essential amino acids, 1% of Glutamax and 1% of 100× penicillin/streptomycin and incubated overnight at 37° C., 5% CO2, 100% relative humidity. 16-20 h after seeding cells, test compounds previously solubilized and titrated in dimethyl sulfoxide (“DMSO”) from each X plate and Y plate are diluted 1:100 in DMEM (without phenol red, Invitrogen Cat.#31053-036) with 10% FCS, 1% non-essential amino acids, 1% of Glutamax and 1% of 100× penicillin/streptomycin and added directly to the 96-well plate containing cells and growth medium at a 1:10 dilution for a final dilution of compound and DMSO of 1:1000 ([…] final concentration). Drug treated cells are incubated at 37° C., 5% CO2, 100% relative humidity for 72 hours before performing a luciferase assay using 100 ul per well BriteLite Plus (Perkin Elmer) according to the manufacturer's instructions. Data analysis utilizes the method published by Prichard and Shipman (Antiviral Research, 1990. 14:181-205). Using this method, the combination data are analyzed for antagonistic, additive, or synergistic combination effects across the entire combination surface created by the diluted compounds in combination.
The compounds of the present invention can be effective against the HCV 1b genotype. It should also be understood that the compounds of the present invention can inhibit multiple genotypes of HCV. In one embodiment compound of the present invention are active against the 1a, 1b, 2a, 2b, 3a, 4a, and 5a genotypes. […] EC50 ranges against HCV 1b and 1a are as follows: A>10 nM; B1-10 nM; C<1 nM.
(In general: A replicon is a self-replicating genome or part of one, used to study replication in cells.)

The test system of experiment [2] is HCV 1b genotype replicon. The experiment in a line: HCV replicon assay (qRT-PCR or luciferase), genotype 1b. The experiment is classed as cell-based. As to conditions: Hepatitis C virus. An outline of the steps: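 EC50 derived either from luciferase signal in Huh-luc/neo-ET replicon cells after 72 h compound exposure (0.2% DMSO, 37 °C) or from TaqMan qRT-PCR of replicon RNA normalized to GAPDH. MTS assay assessed cytotoxicity; combinations tested in 6-point two-fold checkerboards around each EC50.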

Setting [3] is: Table 12, range class, read-out: 1a EC50 Range.
[4] abbreviates: Table 12, numeric values, read-out: 1b EC50.

As for `COC(=O)N[C@H](C(=O)N1CC2(CC2)C[C@H]1c1nc2ccc(C#Cc3ccc(-c4cnc([C@@H]5CCCN5C(=O)[C@@H](NC(=O)OC)[C@@H](C)c5ccccc5)[nH]4)cc3)cc2[nH]1)C(C)C` (stereo in doubt) [Example 672], in experiment [1] (setting [3]), the EC50 was less than 1 nM.

As to `COC(=O)N[C@H](C(=O)N1CC2(CC2)C[C@H]1c1nc2ccc(C#Cc3ccc(-c4cnc([C@@H]5CCCN5C(=O)[C@H](NC(=O)OC)c5cc(F)cc(F)c5)[nH]4)cc3)cc2[nH]1)C(C)C` (stereo in doubt) [Example 678], the 50% effective concentration (EC50) in experiment [1] (setting [3]) is less than 1 nM.

Consider `COC(=O)N[C@H](C(=O)N1CC2(CC2)C[C@H]1c1nc2ccc(C#Cc3ccc(-c4cnc([C@@H]5CCCN5C(=O)OC(C)(C)C)[nH]4)cc3)cc2[nH]1)C(C)C` [Compound 666], for which the EC50 in experiment [1] (setting [3]) was more than 10 nM.

Consider `COC(=O)N[C@@H](CNC(N)=O)C(=O)N1CCC[C@H]1c1ncc(-c2ccc(C#Cc3ccc4nc([C@@H]5CC6(CC6)CN5C(=O)[C@@H](NC(=O)OC)C(C)C)[nH]c4c3)cc2)[nH]1` [Example 550], for which the EC50 in experiment [1] (setting [3]) lay within 1 to 10 nM.

`COC(=O)N[C@@H](CCNC(N)=O)C(=O)N1CCC[C@H]1c1nc(-c2ccc(C#Cc3ccc4[nH]c([C@@H]5CC6(CC6)CN5C(=O)[C@@H](NC(=O)OC)C(C)C)nc4c3)cc2)c[nH]1` [Example 553]: the EC50 in experiment [1] (setting [3]) lay in the range of 1 to 10 nM.

As for `COC(=O)N[C@H](C(=O)N1CC2(CC2)C[C@H]1c1ncc(-c2ccc(C#Cc3ccc4nc([C@@H]5CC6(CC6)CN5C(=O)[C@@H](N)C(C)C)[nH]c4c3)cc2)[nH]1)C(C)C` [Example 556], the EC50 in experiment [1] (setting [3]) was more than 10 nM.

For `COC(=O)N[C@H](C(=O)N1CCC[C@H]1c1nc(-c2ccc(C#Cc3ccc4[nH]c([C@@H]5C[C@]6(CCCO6)CN5C(=O)[C@@H](NC(=O)OC)C(C)C)nc4c3)cc2)c[nH]1)C(C)C` [Example 557], the EC50 in experiment [1] (setting [3]) lay within 1 to 10 nM.

On to `COC(=O)N[C@H](C(=O)N1C[C@@H](CF)C[C@H]1c1ncc(-c2ccc(C#Cc3ccc4nc([C@@H]5C[C@@]6(CCCO6)CN5C(=O)[C@@H](NC(=O)OC)C(C)C)[nH]c4c3)cc2)[nH]1)C(C)C` [Example 566], for which the 50% effective concentration (EC50) in experiment [1] (setting [3]) was less than 1 nM.

With `COC(=O)N[C@H](C(=O)N1CCC[C@H]1c1ncc(-c2ccc(C#Cc3ccc4nc([C@@H]5C[C@@H](C6CC6)CN5C(=O)[C@@H](NC(=O)OC)C(C)C)[nH]c4c3)cc2)[nH]1)C(C)C` [Example 572], the concentration giving a half-maximal response (EC50) in experiment [1] (setting [3]) was less than 1 nM.

Take `CC(C)[C@H](NC(=O)OC1CCC1)C(=O)N1CC2(CC2)C[C@H]1c1ncc(-c2ccc(C#Cc3ccc4nc([C@@H]5CC6(CC6)CN5C(=O)[C@@H](NC(=O)OC5CCC5)C(C)C)[nH]c4c3)cc2)[nH]1` [Example 576]: the concentration giving a half-maximal response (EC50) in experiment [1] (setting [3]) is more than 10 nM.

Consider `COC(=O)N[C@H](C(=O)N1CC2(CC2)C[C@H]1c1ncc(-c2ccc(C#Cc3ccc4nc([C@@H]5CC6(CC6)CN5C(=O)[C@H](NC(=O)OC)c5ccsc5)[nH]c4c3)cc2)[nH]1)C(C)C` [Example 581], for which, in experiment [1] (setting [3]), the EC50 is less than 1 nM.

On to `COC(=O)N[C@H](C(=O)N1CC2(CC2)C[C@H]1c1ncc(-c2ccc(C#Cc3ccc4nc([C@@H]5CC6(CC6)CN5C(=O)[C@H](NC(=O)OC)c5cccs5)[nH]c4c3)cc2)[nH]1)C(C)C` [Example 582], for which the EC50 in experiment [1] (setting [3]) is less than 1 nM.

On to `COC(=O)N[C@H](C(=O)N1CC2(CC2)C[C@H]1c1ncc(-c2ccc(C#Cc3ccc4nc([C@@H]5CC6(CC6)CN5C(=O)[C@H](NC(=O)OC)c5cccc(Cl)c5)[nH]c4c3)cc2)[nH]1)C(C)C` [Example 584], for which the EC50 in experiment [1] (setting [3]) is less than 1 nM.

As for `COC(=O)N[C@H](C(=O)N1CC2(CC2)C[C@H]1c1ncc(-c2ccc(C#Cc3ccc4nc([C@@H]5CC6(CC6)CN5C(=O)[C@H](NC(=O)OC)c5ccc(OC)cc5)[nH]c4c3)cc2)[nH]1)C(C)C` [Example 585], in experiment [1] (setting [3]), the EC50 was in the range of 1 to 10 nM.

Regarding `COC(=O)N[C@H](C(=O)N1CC2(CC2)C[C@H]1c1ncc(-c2ccc(C#Cc3ccc4nc([C@@H]5C[C@H]6C[C@H]6N5C(=O)[C@H](NC(=O)OC)c5ccccc5)[nH]c4c3)cc2)[nH]1)C(C)C` [Example 586], the concentration for a half-maximal effect (EC50) in experiment [1] (setting [3]) was less than 1 nM.

Consider `CC[C@H](C)[C@H](NC(=O)OC)C(=O)N1CC2(CC2)C[C@H]1c1nc2ccc(C#Cc3ccc(-c4cnc([C@@H]5CC6(CC6)CN5C(=O)[C@@H](NC(=O)OC)C(C)C)[nH]4)cc3)cc2[nH]1` [Example 587], for which the EC50 in experiment [1] (setting [3]) was less than 1 nM.

As to `COC(=O)N[C@H](C(=O)N1CC2(CC2)C[C@H]1c1nc(-c2ccc(C#Cc3ccc4[nH]c([C@@H]5CC6(CC6)CN5C(=O)[C@@H](NC(=O)OC)C(C)C)nc4c3)cc2)c(Cl)[nH]1)C(C)C` [Example 588], the 50% effective concentration (EC50) in experiment [1] (setting [3]) was less than 1 nM.

In the case of `COC(=O)N[C@H](C(=O)N1CC2(CC2)C[C@H]1c1ncc(-c2ccc(C#Cc3ccc4nc([C@@H]5CC6(CC6)CN5C(=O)[C@@H](NC(=O)OC)[C@@H](C)OC)[nH]c4c3)cc2)[nH]1)C(C)C` [Example 589], the 50% effective concentration (EC50) in experiment [1] (setting [3]) is less than 1 nM.

As for `COC(=O)N[C@H](C(=O)N1CC2(CC2)C[C@H]1c1ncc(-c2ccc(C#Cc3ccc4nc([C@@H]5CC6(CC6)CN5C(=O)[C@@H](NC(=O)OC)C5CCOCC5)[nH]c4c3)cc2)[nH]1)C(C)C` [Example 590], the EC50 in experiment [1] (Table 12, numeric values, read-out: 1a EC50) turned out to be 0.017 nM.

Take `COC(=O)N[C@H](C(=O)N1CC2(CC2)C[C@H]1c1nc(-c2ccc(C#Cc3ccc4[nH]c([C@@H]5CC6(CC6)CN5C(=O)[C@@H](NC(=O)OC)C(C)C)nc4c3)cc2)c(C2CC2)[nH]1)C(C)C` [Example 591]: the concentration giving a half-maximal response (EC50) in experiment [1] (setting [3]) was less than 1 nM.

For the molecule `COC(=O)N[C@H](C(=O)N1CC2(CC2)C[C@H]1c1nc2ccc(C#Cc3ccc(-c4cnc([C@@H]5CC6(CC6)CN5C(=O)[C@@H](NC(=O)OC)C(C)C)[nH]4)cc3)cc2[nH]1)c1ccccc1` [Example 592], the EC50 in experiment [1] (setting [3]) was less than 1 nM.

For `COC(=O)N[C@H](C(=O)N1CC2(CC2)C[C@H]1c1nc(-c2ccc(C#Cc3ccc4[nH]c([C@@H]5CC6(CC6)CN5C(=O)[C@@H](NC(=O)OC)C(C)C)nc4c3)cc2)c(-c2ccncc2)[nH]1)C(C)C` [Example 593], the EC50 in experiment [1] (setting [3]) is less than 1 nM.

Regarding `COC(=O)N[C@H](C(=O)N1CC2(CC2)C[C@H]1c1nc2ccc(C#Cc3ccc(-c4cnc([C@@H]5CCCN5C(=O)[C@H](NC(=O)OC)c5ccccc5F)[nH]4)cc3)cc2[nH]1)C(C)C` [Example 594], in experiment [1] (setting [3]), the EC50 was less than 1 nM.

With `COC(=O)N[C@H](C(=O)N1CCC[C@H]1c1ncc(-c2ccc(C#Cc3ccc4nc([C@@H]5CC6(CC6)CN5C(=O)[C@@H](NC(=O)OC)C(C)C)[nH]c4c3)cc2)[nH]1)c1ccccc1` [Example 595], the EC50 in experiment [1] (setting [3]) is less than 1 nM.

Turning to `COC(=O)N[C@H](C(=O)N1CCC[C@H]1c1ncc(-c2ccc3cc(-c4ccc5nc([C@@H]6C[C@H](C7CC7)CN6C(=O)[C@@H](NC(=O)OC)C(C)C)[nH]c5c4)ccc3c2)[nH]1)C(C)C` [Example 642], the 50% effective concentration (EC50) in experiment [2] (setting [4]) stood at 0.007 nM.

As for `COC(=O)N[C@H](C(=O)N1[C@@H]2C[C@@H]2C[C@H]1c1ncc(-c2ccc(C#Cc3ccc4nc([C@@H]5CC6(CC6)CN5C(=O)[C@H](NC(=O)OC)c5ccccc5)[nH]c4c3)cc2)[nH]1)C(C)C` [Example 648], the EC50 in experiment [2] (Table 12, range class, read-out: 1b EC50 Range) is less than 1 nM.

As to `COC(=O)N[C@H](C(=O)N1CC2(CC2)C[C@H]1c1ncc(-c2ccc(C#Cc3ccc4nc([C@@H]5CC6(CC6)CN5C(=O)OC(C)(C)C)[nH]c4c3)cc2)[nH]1)C(C)C` [Example 649], the EC50 in experiment [2] (setting [4]) is 0.304 nM.
